According to publication PMC7311950, “Potent Tetrahydroquinolone Eliminates Apicomplexan Parasites” (Frontiers in Cellular and Infection Microbiology, 2020):
≈ marks a conversion by molar mass, not a printed value.

Key:
[1] = test system: T. gondii RH-YFP tachyzoites; test: In vitro challenge assay, RH strain YFP tachyzoites in HFF; type: cell-based; settings: Toxoplasma gondii; RH-YFP tachyzoites in HFF; Figure 1A; read-out: Tachy IC50
Protocol: RH strain YFP Tachyzoites. Protocol was adapted from Fomovska et al. ([2012a],[b]) for HFF. HFF were cultured on a flat, clear-bottomed, black 96-well plate to 90–100% confluence. IMDM (1x, [+] glutamine, [+] 25 mM HEPES, [+] Phenol red, 10% FBS [Gibco, Denmark]) was removed and replaced with IMDM-C(1x, [+] glutamine, [+] 25 mM HEPES, [–] Phenol red, 10% FBS)[Gibco, Denmark]). RH-YFP, lysed from host cells by passing twice through a 27-gauge needle, were counted, then diluted to 32,000/mL in IMDM-C. HFF were infected with 3200 RH-YFP, then returned to 37°C, CO2 (5%) incubator for 1–2 h for infection. Various concentrations of the compounds in 20 μL IMDM-C were added to each well. There were triplicates for each condition. Controls were pyrimethamine/sulfadiazine (standard treatment), 0.1% DMSO only, HFF only, and untreated cultures of HFF infected with 2-fold dilutions of YFP expressing parasites (called “YFP gradient” to establish amount of color from known numbers of YFP expressing parasites). Cells were incubated at 37°C for 72 h. Plates were read using a fluorimeter (Synergy H4 Hybrid Reader, BioTek) to ascertain amount of relative fluorescence units (RFU) YFP, to measure parasite burden after treatment. Data were collected using Gen5 software with IC50 calculated by graphical analysis in Excel.
An initial screening assay of 10 μM, 1 μM, 100 nM, and 10 nM of the compounds was performed. Compounds were not considered effective or pursued for further analysis if there was no inhibition of tachyzoites at 1 μM. If compounds were effective at 1 μM, another experiment was performed to assess effect at 1 μM, 500, 250, 125, 62.5, and 31.25 nM.

[2] = test system: T. gondii EGS strain bradyzoites; test: In vitro challenge assay for EGS strain bradyzoites; type: cell-based, Toxoplasma gondii; settings: Toxoplasma gondii; EGS strain in HFF; Figure 1A; read-out: Brady IC50
Protocol: HFF cells were grown in IMDM on removable, sterile glass cover slips in the bottom of a clear, flat-bottomed 24-well plate. Cultures were infected with 3 × 10^4 EGS strain parasites per well, in 0.5 mL media. The plate was returned to incubator at 37°C overnight. The following day, the media was removed. Colorless IMDM and compounds were added to make various concentrations of the drug. Total volume was 0.5 mL. Two wells had media only, as a control. Plates were returned to the 37°C incubator for 72 h, checked once each 24 h. If tachyzoites were visible in the control before 72 h, cells were fixed and stained. Cells were fixed using 4% paraformaldehyde and stained with Fluorescein-labeled Dolichos Biflorus Agglutinin, DAPI, and antibody to BAG1. Disks were removed, mounted on glass slides, and visualized using microscopy (Nikon Tl7). Slides were scanned using a CRi Panoramic Scan Whole Slide Scanner and viewed using Panoramic Viewer Software. Effects of compounds were quantitated by counting cysts in controls and treated cultures. Dolichos staining delimited structures and single organisms that remained were counted in a representative field of view. This was then multiplied by a factor determined by the total area of the cover slip in order to estimate the number of cysts and organisms in each condition. When the following forms were observed: “true cysts” with a dolichos-staining wall, “pseudocysts” or tight clusters of parasites, and small organisms, if there were fewer than four parasites visible in a cluster, organisms were counted individually (as “small organisms”). The entire scanned coverslip with all fields was also reviewed by 3 observers to confirm consistency.

[3] = Kinetic solubility in PBS pH 7.4 (Chem Partners); settings: PBS; for solubility kinetic: pH 7.4, aqueous buffer, kinetic from dmso stock
Protocol: (§1) The effects of changing R1 as 7-Et, 7-Me, 6-CF3, or 6-Me on activity against RH strain tachyzoites, kinetic solubility, and metabolic stability were compared. Kinetic solubility and metabolic stability in human or murine liver microsomes were measured. The hERG (human Ether-à-go-go-Related) liability was also determined. The hERG gene (KCNH2) encodes a protein Kv11.1, the alpha subunit of a potassium ion channel. This channel conducts the rapid component of the delayed rectifier potassium current, IKr, which is critical for repolarization of cardiac action potentials. A reduction in hERG currents from adverse drug effects can lead to long QT interval syndromes. These syndromes are characterized by action potential prolongation, lengthening of the QT interval on surface EKG, and an increased risk for “torsade de pointes” arrhythmias and sudden death. The MDCK-MDR1 Permeability Assay was also performed. MDCK-MDR1 refers to the ability of a compound to permeate across membranes of MDCK-MDR1 (Madin Darby canine kidney [MDCK] cells with the MDR1 gene [ABCB1], the gene encoding for the efflux protein, P-glycoprotein (P-gp)) in vitro. Assessing transport in both directions (apical to basolateral and basolateral to apical) across the cell monolayers enables an efflux ratio to be determined. […] This provides a prediction of blood brain barrier (BBB) penetration potential/permeability and efflux ratio. Effect in CACO-2 (Colon Adenocarcinoma cells) as a permeability assay and on cytochrome P450 (CYP 450) were also determined. CYP enzymes catalyze oxidative biotransformation (phase 1 metabolism) of most drugs. CYP enzymes, bind to membranes in a cell (cyto) and contain a heme pigment (chrome and P) that absorbs light at a wavelength of 450 nm when exposed to carbon monoxide. Metabolism of a drug by CYP enzymes is a major source of variability in drug effect. These were measured by Chem Partners. The relative effect on HFF and parasite enzymes also were compared.

[4] = Metabolic stability in mouse liver microsomes; settings: mouse, liver microsomes, T1/2 (M), predicted half-life in mouse liver microsomes; Figure 1A; min in Figure 2E for the same values
Protocol: as §1
(§2) In vitro absorption, distribution, metabolism, excretion, and toxicity (ADMET) analyses of the THQ compounds were outsourced to ChemPartner Shanghai Ltd. ELQ-271 (synthesized in-house) was tested as a comparison.

[5] = Metabolic stability in human liver microsomes; settings: human, liver microsomes
Protocol: as §1, §2

Compound: Cc1[nH]c2c(c(=O)c1-c1ccc(Oc3cccc(OC(F)(F)F)c3)cc1)CCCC2 [AS006]
- IC50 [1]: 60 nM
- IC50 [2]: 1000 nM
- solubility kinetic [3]: 0.55 µM (≈ 0.228 µg/mL)
- half-life [4]: 0.431 h

Compound: Cc1[nH]c2c(c(=O)c1-c1ccc(Oc3cccc(C(F)(F)F)c3)cc1)CCCC2 [AS012]
- IC50 [1]: 260 nM
- solubility kinetic [3]: 2.19 µM (≈ 0.875 µg/mL)
- half-life [4]: 0.501 h

Compound: Cc1[nH]c2c(c(=O)c1-c1ccc(Oc3ccc(F)c(Cl)c3)cc1)CCCC2 [AS021]
- IC50 [1]: 65 nM
- IC50 [2]: 1000 nM
- solubility kinetic [3]: 2 µM (≈ 0.768 µg/mL)
- half-life [4]: 0.685 h

Compound: Cc1[nH]c2c(c(=O)c1-c1ccc(Oc3cc(Cl)cc(Cl)c3)cc1)CCCC2 [AS022]
- IC50 [1]: 30 nM
- IC50 [2]: 1000 nM
- solubility kinetic [3]: 6.25 µM (≈ 2.5 µg/mL)
- half-life [4]: 0.477 h

Compound: Cc1[nH]c2c(c(=O)c1-c1ccc(Oc3ccc4c(c3)OCO4)cc1)CCCC2 [AS032]
- IC50 [1]: 200 nM

Compound: Cc1[nH]c2c(c(=O)c1-c1ccc(Oc3cc(Cl)nc(Cl)c3)cc1)CCCC2 [AS034]
- IC50 [1]: 280 nM
- solubility kinetic [3]: 5.05 µM (≈ 2.03 µg/mL)
- half-life [4]: 0.415 h

Compound: Cc1[nH]c2ccccc2c(=O)c1-c1ccc(Oc2ccc(OC(F)(F)F)cc2)cc1 [ELQ271, reference compound]
- IC50 [1]: 30 nM
- IC50 [2]: 5000 nM
- solubility ([3]; pH 7.4, aqueous solubility (PBS, pH 7.4), amorphous compounds): 0.2 µM (≈ 0.0823 µg/mL)
- half-life [4]: 7.47 h

Compound: Cc1c(-c2ccc(Oc3ccc(OC(F)(F)F)cc3)cc2)c(=O)c2c(n1C)CCCC2 [JAG023]
- IC50 [1]: 800 nM

Compound: Cc1[nH]c2c(c(=O)c1-c1ccc(Oc3ccc(F)cc3)cc1)CCCC2 [JAG058]
- IC50 [1]: 40 nM
- IC50 [2]: 1000 nM
- solubility kinetic [3]: 2.38 µM (≈ 0.832 µg/mL)
- half-life [5]: 4.39 h
- half-life [4]: 0.653 h

Compound: Cc1[nH]c2c(c(=O)c1-c1ccc(Oc3cccc(Cl)c3)cc1)CCCC2 [JAG062]
- IC50 [1]: 16 nM
- IC50 [2]: 1000 nM
- solubility kinetic [3]: 0.33 µM (≈ 0.121 µg/mL)
- half-life [5]: 2.26 h
- half-life [4]: 0.207 h

Compound: Cc1[nH]c2c(c(=O)c1-c1ccc(Oc3ccc(C(F)(F)F)cc3)cc1)CCCC2 [JAG063]
- IC50 [1]: 200 nM
- solubility kinetic [3]: 0.45 µM (≈ 0.18 µg/mL)
- half-life [5]: 8.94 h
- half-life [4]: 2.12 h

Compound: Cc1[nH]c2c(c(=O)c1-c1ccc(Oc3cccc(F)c3)cc1)CCCC2 [JAG069]
- IC50 [1]: 30 nM
- IC50 [2]: 1000 nM
- solubility kinetic [3]: 0.5 µM (≈ 0.175 µg/mL)
- half-life [5]: 3.37 h
- half-life [4]: 0.29 h

Compound: Cc1[nH]c2c(c(=O)c1-c1ccc(Oc3ccc(Cl)c(Cl)c3)cc1)CCCC2 [JAG084]
- IC50 [1]: 55 nM
- IC50 [2]: 1000 nM
- solubility kinetic [3]: 0.68 µM (≈ 0.272 µg/mL)
- half-life [4]: 1.05 h

Compound: O=C(O)c1[nH]c2c(c(=O)c1-c1ccc(Oc3ccc(OC(F)(F)F)cc3)cc1)CCCC2 [JAG091]
- IC50 [1]: > 10000 nM

Compound: Cc1[nH]c2c(c(=O)c1-c1ccc(O)cc1)CCCC2 [JAG094]
- IC50 [1]: 1000 nM

Compound: Cc1[nH]c2c(c(=O)c1-c1ccc(Oc3ccc(OC(F)(F)F)cc3)cc1)CC(C(F)(F)F)CC2 (centres unmarked) [JAG100]
- IC50 [1]: > 10000 nM

Compound: Cc1[nH]c2c(c(=O)c1-c1ccc(Oc3ccc(OC(F)(F)F)cc3)cc1)CC(C)CC2 (centres unmarked) [JAG106]
- IC50 [1]: 2500 nM

Compound: Cc1[nH]c2c(c(=O)c1-c1ccc(Oc3ccc(OC(F)(F)F)cc3)cc1)CCC(C)C2 (centres unmarked) [JAG107]
- IC50 [1]: 50 nM
- solubility kinetic [3]: 0.03 µM (≈ 0.0129 µg/mL)
- half-life [4]: 1.87 h

Compound: CCC1CCc2c([nH]c(C)c(-c3ccc(Oc4ccc(OC(F)(F)F)cc4)cc3)c2=O)C1 (centres unmarked) [JAG121]
- IC50 [1]: 55 nM
- solubility kinetic [3]: 0.16 µM (≈ 0.071 µg/mL)
- half-life [4]: 1.05 h

Compound: Cc1[nH]c2cnccc2c(=O)c1-c1ccc(Oc2ccc(OC(F)(F)F)cc2)cc1 [JAG129]
- IC50 [1]: 85 nM
- solubility kinetic [3]: 5.12 µM (≈ 2.11 µg/mL)

Compound: Cc1[nH]c2c(c(=O)c1-c1ccc(Oc3ccc(OC(F)(F)F)cc3)cc1)CCC(C(F)(F)F)C2 (centres unmarked) [JAG162]
- IC50 [1]: 300 nM
- solubility kinetic [3]: 0.02 µM (≈ 0.00967 µg/mL)
- half-life [4]: 2.41 h

Compound: CCOC(=O)Oc1c2c(nc(C)c1-c1ccc(Oc3ccc(OC(F)(F)F)cc3)cc1)CCCC2 [JAG171]
- IC50 [1]: 100 nM

Compound: CCC1CCc2c([nH]c(CO)c(-c3ccc(Oc4ccc(OC(F)(F)F)cc4)cc3)c2=O)C1 (centres unmarked) [JAG174]
- IC50 [1]: 380 nM

Compound: O=c1c2c([nH]c(CO)c1-c1ccc(Oc3ccc(OC(F)(F)F)cc3)cc1)CC(C(F)(F)F)CC2 (centres unmarked) [JAG187]
- IC50 [1]: 2000 nM

Compound: CC1CCc2c([nH]c(CO)c(-c3ccc(Oc4ccc(OC(F)(F)F)cc4)cc3)c2=O)C1 (centres unmarked) [JAG193]
- IC50 [1]: 50 nM

Compound: Cc1[nH]c2c(c(=O)c1-c1ccc(Oc3cc(Cl)cc(Cl)c3)cc1)CCC(C)C2 (centres unmarked) [JAG208]
- IC50 [1]: 20 nM
- IC50 [2]: 1000 nM

Compound: Cc1[nH]c2ccccc2c(=O)c1-c1ccc(Oc2ccccc2)cc1 [MJM129]
- IC50 [1]: 50 nM
- IC50 [2]: > 10000 nM

Compound: Cc1[nH]c2ccnn2c(=O)c1-c1ccc(Oc2ccc(OC(F)(F)F)cc2)cc1 [MJM141]
- IC50 [1]: 8200 nM
- IC50 [2]: 10000 nM
- solubility kinetic [3]: 0.94 µM (≈ 0.377 µg/mL)
- half-life [5]: 4.64 h
